Values quoted from earlier work in patent US20040023948A1, “Fast-dispersing dosage form containing 5-HT1 agonists” (priority 1997, published 2004).

Conditions: Vogel conflict test in rats; Gammans et al. 1986

Structure (SMILES): c1cnc(N2CCNCC2)nc1 [Example 1-PP, 1-pyrimidinylpiperazine]
- activity relative to unchanged buspirone: ≤ 20%
